# Test results: ChEMBL document CHEMBL5634138, “Discovery of a novel BLT2 antagonist for the treatment of inflammatory airway diseases” (Eur J Med Chem, 2023)
# The source made the active and inactive calls. No cut-off for these calls is given here.
# How the values were obtained:
# Mus musculus [1] = experiment: Anti-asthmatic activity against OVA/LPS induced BALB/c mouse model assessed as reduction in bronchial hyper-response at 10 mg/kg, ip for one hr before every challenge on day 14 to 16 and measured after 17 days relative to control; assay type: functional; design: scale not given: the % may be the effect or the level left; settings: time 17 day
# Mus musculus [2] = experiment: Anti-asthmatic activity against OVA/LPS induced BALB/c mouse model assessed as decrease in bronchoalveolar lavage fluid (BALF) IL-13 level at 10 mg/kg, ip by ELISA method relative to control; assay type: functional; design: scale not given: the % may be the effect or the level left
# Mus musculus [3] = experiment: Anti-asthmatic activity against OVA/LPS induced BALB/c mouse model assessed as decrease in bronchoalveolar lavage fluid (BALF) IL-5 level at 10 mg/kg, ip by ELISA method relative to control; assay type: functional; design: scale not given: the % may be the effect or the level left
# Mus musculus [4] = experiment: Anti-asthmatic activity against OVA/LPS induced BALB/c mouse model assessed as decrease in bronchoalveolar lavage fluid (BALF) IL-4 level at 10 mg/kg, ip by ELISA method relative to control; assay type: functional; design: scale not given: the % may be the effect or the level left
# CHO [5] = experiment: (§1) Cytotoxicity against CHO cells assessed as inhibition of cell growth at 10 uM incubated overnight by MTS assay reltive to control; assay type: toxicity, cell-based, Cricetulus griseus; settings: chinese hamster, cho, 10 µM
# [6] = as §1; assay type: toxicity, cell-based, Cricetulus griseus; settings: chinese hamster, CHO cells, read-out: Activity
# [7] = Metabolic stability in mouse liver microsomes assessed as parent compound remaining measured after 30 mins in presence of […]; assay type: ADME, Microsome; settings: read-out: Stability
# [8] = Oral bioavailability in rat at 20 mg/kg administered as suspension; assay type: ADME, organism-based; settings: in vivo
# [9] = Tmax in rat at 20 mg/kg, po administered as suspension; assay type: ADME, organism-based; settings: in vivo
# [10] = Cmax in rat at 20 mg/kg, po administered as suspension; assay type: ADME, organism-based; settings: in vivo
# [11] = Metabolic stability in human liver microsomes assessed as parent compound remaining measured after 30 mins in presence of […]; assay type: ADME, Microsome; settings: read-out: Stability
# [12] = AUC infinity in rat at 20 mg/kg, po administered as solution; assay type: ADME, organism-based; settings: in vivo
# [13] = Metabolic stability in mouse liver microsomes assessed as parent compound remaining measured after 30 mins in absence of […]; assay type: ADME, Microsome; settings: read-out: Stability
# [14] = AUC infinity in rat at 20 mg/kg, po administered as suspension; assay type: ADME, organism-based; settings: in vivo
# [15] = biological target: T1, Leukotriene B4 receptor 2 (Homo sapiens, UniProt Q9NPC1); experiment: Displacement of 3H-LTB4 from human BLT2 expressed in CHO cell membrane assessed as inhibition constant incubated for 60 mins by liquid scintillation counter analysis
# T1 sequence (Q9NPC1 whole entry): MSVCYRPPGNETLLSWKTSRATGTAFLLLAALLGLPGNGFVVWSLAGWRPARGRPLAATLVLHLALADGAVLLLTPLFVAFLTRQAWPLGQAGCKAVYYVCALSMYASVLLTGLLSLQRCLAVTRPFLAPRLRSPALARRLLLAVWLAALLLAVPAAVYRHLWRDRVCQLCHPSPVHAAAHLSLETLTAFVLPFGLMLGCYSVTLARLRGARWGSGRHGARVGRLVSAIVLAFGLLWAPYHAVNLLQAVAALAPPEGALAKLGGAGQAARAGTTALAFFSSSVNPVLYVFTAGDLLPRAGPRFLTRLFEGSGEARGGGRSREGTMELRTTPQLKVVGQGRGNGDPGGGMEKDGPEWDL
# [16] = Half life in rat at 2 mg/kg, iv; assay type: ADME, organism-based; settings: in vivo
# Mus musculus [17] = experiment: Anti-asthmatic activity against OVA/LPS induced BALB/c mouse model assessed as decrease in bronchoalveolar lavage fluid (BALF) IL-4 level at 20 mg/kg, ip by ELISA method relative to control; assay type: functional; design: scale not given: the % may be the effect or the level left
# Mus musculus [18] = experiment: Anti-asthmatic activity against OVA/LPS induced BALB/c mouse model assessed as decrease in bronchoalveolar lavage fluid (BALF) IL-5 level at 20 mg/kg, ip by ELISA method relative to control; assay type: functional; design: scale not given: the % may be the effect or the level left
# CHO [19] = experiment: Inhibition of Akt phosphorylation (unknown origin) expressed in CHO cells harbouring BLT2 by Western blot analysis; assay type: cell-based; settings: Homo sapiens
# [20] = Metabolic stability in human liver microsomes assessed as parent compound remaining measured after 30 mins in absence of […]; assay type: ADME, Microsome; settings: read-out: Stability
# [21] = Metabolic stability in human liver microsomes assessed as parent compound remaining measured after 30 mins in absence of NADPH; assay type: ADME, Microsome; settings: read-out: Stability
# [22] = AUC infinity in rat at 2 mg/kg, iv; assay type: ADME, organism-based; settings: in vivo
# [23] = Solubility of the compound in deionized water; assay type: physicochemical; settings: buffer
# [24] = Oral bioavailability in rat at 20 mg/kg administered as solution; assay type: ADME, organism-based; settings: in vivo
# [25] = Metabolic stability in mouse liver microsomes assessed as parent compound remaining measured after 30 mins in absence of NADPH; assay type: ADME, Microsome; settings: read-out: Stability
# [26] = Metabolic stability in mouse liver microsomes assessed as parent compound remaining measured after 30 mins in presence of NADPH; assay type: ADME, Microsome; settings: read-out: Stability
# [27] = Clearance in rat at 2 mg/kg, iv; assay type: ADME, organism-based; settings: in vivo
# [28] = Tmax in rat at 20 mg/kg, po administered as solution; assay type: ADME, organism-based; settings: in vivo
# [29] = biological target: Leukotriene B4 receptor 1 (Homo sapiens) (UniProt Q15722); experiment: Antagonist activity at human BLT1 expressed in CHO cells assessed as inhibition of LTB4 induced cell migration at 10 uM measured after 3 hrs by chemotaxis assay; assay type: cell-based
# Mus musculus [30] = experiment: Anti-asthmatic activity against OVA/LPS induced BALB/c mouse model assessed as decrease in bronchoalveolar lavage fluid (BALF) IL-13 level at 20 mg/kg, ip by ELISA method relative to control; assay type: functional; design: scale not given: the % may be the effect or the level left
# [31] = Metabolic stability in human liver microsomes assessed as parent compound remaining measured after 30 mins in presence of NADPH; assay type: ADME, Microsome; settings: read-out: Stability
# [32] = Cmax in rat at 20 mg/kg, po administered as solution; assay type: ADME, organism-based; settings: in vivo
# [33] = Apparent volume of distribution in rat at 2 mg/kg, iv; assay type: ADME, organism-based; settings: in vivo, read-out: Vd(app)
# [34] = biological target: T2, Leukotriene B4 receptor 2 (Mus musculus, UniProt Q9JJL9); experiment: Agonist activity at mouse BLT2 expressed in CHO cells assessed as induction of calcium accumulation; assay type: functional, cell-based
# T2 sequence (Q9JJL9 whole entry): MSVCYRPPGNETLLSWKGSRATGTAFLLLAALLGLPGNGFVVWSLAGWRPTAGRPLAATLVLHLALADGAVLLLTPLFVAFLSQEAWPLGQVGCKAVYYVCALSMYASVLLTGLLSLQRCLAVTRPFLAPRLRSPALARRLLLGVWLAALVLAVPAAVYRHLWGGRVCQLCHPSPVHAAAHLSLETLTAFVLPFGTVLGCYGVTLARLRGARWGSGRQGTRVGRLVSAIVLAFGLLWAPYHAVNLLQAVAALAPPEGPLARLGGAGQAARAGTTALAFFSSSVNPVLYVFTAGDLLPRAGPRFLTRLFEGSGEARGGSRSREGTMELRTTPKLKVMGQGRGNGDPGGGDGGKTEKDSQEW
# [35] = biological target: T3, Leukotriene B4 receptor 2 (Mus musculus) (UniProt Q9JJL9); experiment: Displacement of 3[H]LTB4 from mouse BLT2 by competitive binding assay; settings: filed as agonist
# T3 sequence (whole entry): T2 sequence (Q9JJL9 whole entry)
# CHO [36] = experiment: Inhibition of Akt phosphorylation (unknown origin) expressed in CHO cells harbouring BLT1 by Western blot analysis; assay type: cell-based; settings: Homo sapiens
# [37] = biological target: Leukotriene B4 receptor 1 (Homo sapiens) (UniProt Q15722); experiment: Antagonist activity at human BLT1 expressed in CHO cells assessed as inhibition of LTB4 induced cell migration at 10 uM measured after 3 hrs by chemotaxis assay relative to control; assay type: cell-based; design: scale not given: the % may be the effect or the level left; settings: filed as antagonist
# Leukotriene B4 receptor 1 (Homo sapiens), sequence (Q15722 whole entry): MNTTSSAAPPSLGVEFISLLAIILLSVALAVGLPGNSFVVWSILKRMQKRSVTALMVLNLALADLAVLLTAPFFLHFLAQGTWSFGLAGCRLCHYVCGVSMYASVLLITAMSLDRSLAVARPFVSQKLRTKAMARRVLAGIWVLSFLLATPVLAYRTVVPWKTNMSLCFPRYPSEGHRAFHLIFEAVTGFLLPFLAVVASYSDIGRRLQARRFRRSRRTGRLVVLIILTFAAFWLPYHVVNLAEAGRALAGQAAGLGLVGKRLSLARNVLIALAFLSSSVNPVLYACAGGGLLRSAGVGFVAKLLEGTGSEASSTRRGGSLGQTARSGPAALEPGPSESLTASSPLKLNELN
compound,measurement,setting,value
CCc1cc(C(C)=O)c(O)cc1OCCCCCC(C)(C)c1nn[nH]n1 [LY-255283],Activity,Mus musculus [1],69%
same,Activity,Mus musculus [2],38%
same,Activity,Mus musculus [3],48%
same,Activity,Mus musculus [4],38%
CCCCC(=O)N(Cc1ccc(-c2ccc(C(=O)O)cc2)cc1)c1cccc(F)c1,Activity,CHO [5],Non-Toxic
CCCCC(=O)N(Cc1ccc(-c2ccc(O/C=C/C(=O)O)cc2)cc1)c1cccc(F)c1,Activity,CHO [5],Non-Toxic
CCCCC(=O)N(Cc1ccc(-c2ccc(OCCC(=O)O)cc2)cc1)c1cccc(F)c1,Activity,CHO [5],Non-Toxic
CCCCC(=O)N(Cc1ccc(-c2ccc(C(=O)N3CCN(C)CC3)cc2)cc1)c1ccccc1,Activity,CHO [5],Non-Toxic
CCCCC(=O)N(Cc1ccc(-c2ccc(OC)cc2)cc1)c1cccc(F)c1,inhibition at 10 µM,[6],7%
CCCCC(=O)N(Cc1ccc(-c2ccc(O)cc2)cc1)c1cccc(C)c1,inhibition at 10 µM,[6],24%
CCCCC(=O)N(Cc1ccc(-c2ccc(OCC(=O)O)cc2)cc1)c1cccc(F)c1,remaining at 0.5 h,[7],91.7%
same,bioavailability,[8],24%
same,Activity,CHO [5],Non-Toxic
same,Tmax,[9],0.9 h
same,Cmax,[10],700 ng/mL
same,remaining at 0.5 h,[11],94%
same,Activity,Mus musculus [1],59%
same,AUC(0-inf),[12],2200 ng·h/mL
same,remaining at 0.5 h,[13],92.9%
same,AUC(0-inf),[14],1500 ng·h/mL
same,Ki,[15],132 nM
same,half-life,[16],1.4 h
same,Activity,Mus musculus [2],19%
same,Activity,Mus musculus [17],35%
same,Activity,Mus musculus [18],46%
same,inhibition,CHO [19],Active
same,Activity,Mus musculus [3],33%
same,remaining at 0.5 h,[20],98.8%
same,remaining at 0.5 h,[21],98.1%
same,AUC(0-inf),[22],600 ng·h/mL
same,solubility,[23],0.033 µg/mL
same,Activity,Mus musculus [4],25%
same,bioavailability,[24],35%
same,remaining at 0.5 h,[25],88.3%
same,remaining at 0.5 h,[26],67.8%
same,clearance,[27],54 mL/min/kg
same,Tmax,[28],1 h
same,Activity,[29],inactive
same,Activity,Mus musculus [30],38%
same,remaining at 0.5 h,[31],74.5%
same,Cmax,[32],1100 ng/mL
same,Vd,[33],4.2 L/kg
CCCCC(=O)N(Cc1ccc(-c2ccccc2C(=O)O)cc1)c1ccccc1,EC50,[34],20 nM
same,Activity,[35],5 nM
CCCCC(=O)N(Cc1ccc(-c2ccc(O)cc2)cc1)c1cccc(C(F)(F)F)c1,inhibition at 10 µM,[6],5%
CCCCC(=O)N(Cc1ccc(-c2ccc(OCC(=O)O)cc2)cc1)c1cccc(C(F)(F)F)c1,Activity,CHO [5],Non-Toxic
CCCCC(=O)N(Cc1ccc(-c2ccc(O)nc2)cc1)c1cccc(F)c1,Activity,CHO [5],Non-Toxic
CCCCC(=O)N(Cc1ccc(-c2ccc(N)cc2)cc1)c1ccccc1,Activity,CHO [5],Non-Toxic
CCCCC(=O)N(Cc1ccc(-c2ccc(OCC(=O)O)cc2)cc1)c1ccccc1,Activity,CHO [5],Non-Toxic
CCCCC(=O)N(Cc1ccc(-c2ccccc2CC(=O)O)cc1)c1ccccc1,inhibition at 10 µM,[6],25%
CCCCC(=O)N(Cc1ccc(-c2ccc(O)cc2)cc1)c1cccc(F)c1,remaining at 0.5 h,[7],70.1%
same,Activity,CHO [5],Non-Toxic
same,remaining at 0.5 h,[11],92.8%
same,remaining at 0.5 h,[13],90.4%
same,inhibition,CHO [36],Active
same,inhibition,CHO [19],Active
same,Activity,[37],90%
same,remaining at 0.5 h,[20],98.8%
same,remaining at 0.5 h,[21],96.8%
same,solubility,[23],< 0.02 µg/mL
same,remaining at 0.5 h,[25],84.2%
same,remaining at 0.5 h,[26],2.2%
same,remaining at 0.5 h,[31],33.5%
CCCCC(=O)N(Cc1ccc(-c2ccc(OC)cc2)cc1)c1cccc(C)c1,Activity,CHO [5],Non-Toxic
CCCCC(=O)N(Cc1ccc(-c2ccc(C(=O)O)cc2)cc1)c1ccccc1F,Activity,CHO [5],Non-Toxic
CCCCC(=O)N(Cc1ccc(-c2ccc(C(=O)O)cc2)cc1)c1ccccc1,Activity,CHO [5],Non-Toxic
CCCCC(=O)N(Cc1ccc(-c2ccc(OC)cc2)cc1)c1cccc(C(F)(F)F)c1,Activity,CHO [5],Non-Toxic
CCCCC(=O)N(Cc1ccc(-c2ccc(OCC(=O)O)cc2)cc1)c1cccc(C)c1,Activity,CHO [5],Non-Toxic
CCCCC(=O)N(Cc1ccc(-c2ccc(C(N)=O)cc2)cc1)c1ccccc1,Activity,CHO [5],Non-Toxic
CCCCC(=O)N(Cc1ccc(-c2ccc(C(=O)NCC(=O)O)cc2)cc1)c1ccccc1,Activity,CHO [5],Non-Toxic
CCCCC(=O)N(Cc1ccc(-c2ccc(C(=O)NCC)cc2)cc1)c1ccccc1,Activity,CHO [5],Non-Toxic
CCCCC(=O)N(Cc1ccc(-c2ccc(OC)cc2)cc1)c1ccccc1,Activity,CHO [5],Non-Toxic
CCCCC(=O)N(Cc1ccc(-c2ccc(O)cc2)nc1)c1cccc(F)c1,Activity,CHO [5],Non-Toxic
CCCCC(=O)N(Cc1ccc(-c2ccc(O)cc2)cc1)c1ccccc1,Activity,CHO [5],Non-Toxic
CCCCC(=O)N(Cc1ccc(-c2ccccc2CCC(=O)O)cc1)c1ccccc1,inhibition at 10 µM,[6],4%
CCCCC(=O)N(Cc1ccc(-c2cccc(C(=O)O)c2)cc1)c1ccccc1,Activity,CHO [5],Non-Toxic
CCCCC(=O)N(Cc1ccc(-c2ccc(C(=O)O)cc2)cc1)c1ccc(F)cc1,Activity,CHO [5],Non-Toxic
CCCCC(=O)N(Cc1ccc(-c2ccc(C(=O)N3CCN(C(C)C)CC3)cc2)cc1)c1ccccc1,Activity,CHO [5],Non-Toxic
